One test concerns the target T1, mouse LSECtin CRD (Mus musculus, UniProt Q8BNX1).
T1 sequence (Q8BNX1 161-294): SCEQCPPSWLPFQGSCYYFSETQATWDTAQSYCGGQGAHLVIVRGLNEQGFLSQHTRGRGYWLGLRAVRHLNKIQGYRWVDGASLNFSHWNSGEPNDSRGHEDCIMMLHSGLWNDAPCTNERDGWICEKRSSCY
Type of test: binding.

A further test concerns the target T2, human LSECtin CRD (Homo sapiens, UniProt Q6UXB4).
T2 sequence (Q6UXB4 165-293 limits assumed): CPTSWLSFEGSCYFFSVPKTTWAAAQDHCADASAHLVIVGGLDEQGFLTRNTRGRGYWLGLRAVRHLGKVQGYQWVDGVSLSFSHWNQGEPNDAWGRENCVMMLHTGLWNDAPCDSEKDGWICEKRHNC
Type of test: binding.

As for `CC(=O)N[C@H]1[C@H](O[C@@H]2C(O)O[C@H](CO)[C@@H](O)[C@@H]2O)O[C@H](CO)[C@@H](O)[C@@H]1O` (some centres unmarked) [GlcNAcβ1-2Man], the Ki (commonly a dissociation constant, usually derived from enzyme kinetics or from competition with a known ligand) on mouse LSECtin CRD was determined as 10.2 ± 0.8 µM; on human LSECtin CRD it was 1.1 ± 0.5 µM.

The record behind these values is paper PMC3091528 (Glycobiology, 2011).
